Data from ChEMBL document CHEMBL5247648, “Design, Synthesis, and Anti-Cancer Evaluation of Novel Cyclic Phosphate Prodrug of Gemcitabine” (J Med Chem, 2023).

Tested on: MM1.S
Assay: Antiproliferative activity against human MM1.S cells assessed as inhibition of cell proliferation treated for 72 hrs by resazurin dye-based fluorescence assay
Type: functional
Details: not given

SMILES | IC50
COC(=O)COP1(=O)OC[C@H]2O[C@@H](n3ccc(N)nc3=O)C(F)(F)[C@@H]2O1 (stereo partly specified) | 2.7 nM
COC(=O)COP(=O)(N[C@@H](C)C(=O)OCc1ccccc1)OC[C@H]1O[C@@H](n2ccc(N)nc2=O)C(F)(F)[C@@H]1O (stereo partly specified) | 4.1 nM
COC(=O)[C@H](C)NP(=O)(OC[C@H]1O[C@@H](n2ccc(N)nc2=O)C(F)(F)[C@@H]1O)Oc1ccccc1 (stereo partly specified) | 110 nM
COC(=O)COP(=O)(N[C@@H](C)C(=O)OC(C)C)OC[C@H]1O[C@@H](n2ccc(N)nc2=O)C(F)(F)[C@@H]1O (stereo partly specified) | 4.7 nM
CCOC(=O)COP1(=O)OC[C@H]2O[C@@H](n3ccc(N)nc3=O)C(F)(F)[C@@H]2O1 (stereo partly specified) | 3.9 nM
CCCC(CCC)C(=O)Nc1ccn([C@@H]2O[C@H](COP(=O)(N[C@@H](C)C(=O)OCc3ccccc3)Oc3ccccc3)[C@@H](O)C2(F)F)c(=O)n1 (stereo partly specified) | > 1000 nM
CC(C)OC(=O)[C@H](C)NP(=O)(OC[C@H]1O[C@@H](n2ccc(N)nc2=O)C(F)(F)[C@@H]1O)Oc1ccccc1 (stereo partly specified) | 500 nM
Nc1ccn([C@@H]2O[C@@H]3CO[P@@](=O)(OCC(=O)OCc4ccccc4)O[C@H]3C2(F)F)c(=O)n1 | 6 nM
Nc1ccn([C@@H]2O[C@@H]3CO[P@](=O)(OCC(=O)OCc4ccccc4)O[C@H]3C2(F)F)c(=O)n1 | 5 nM
C[C@H](NP(=O)(OC[C@H]1O[C@@H](n2ccc(N)nc2=O)C(F)(F)[C@@H]1O)Oc1ccccc1)C(=O)OC1CCCCC1 (stereo partly specified) | 130 nM
CCCC(CCC)C(=O)Nc1ccn([C@@H]2O[C@H](COP(=O)(N[C@@H](C)C(=O)OC(C)C)OCC(=O)OC)[C@@H](O)C2(F)F)c(=O)n1 (stereo partly specified) | > 1000 nM
CC(C)OC(=O)COP1(=O)OC[C@H]2O[C@@H](n3ccc(N)nc3=O)C(F)(F)[C@@H]2O1 (stereo partly specified) | 5.4 nM

Tested on: BXPC-3
Assay: Antiproliferative activity against human BXPC-3 cells assessed as inhibition of cell proliferation treated for 72 hrs by resazurin dye-based fluorescence assay
Type: functional
Details: BXPC-3, 72 h

SMILES | IC50
COC(=O)COP1(=O)OC[C@H]2O[C@@H](n3ccc(N)nc3=O)C(F)(F)[C@@H]2O1 (stereo partly specified) | 31.1 nM
Nc1ccn([C@@H]2O[C@@H]3COP(=O)(OCCC(=O)OCc4ccccc4)O[C@H]3C2(F)F)c(=O)n1 (stereo partly specified) | 68.4 nM
COC(=O)COP(=O)(N[C@@H](C)C(=O)OCc1ccccc1)OC[C@H]1O[C@@H](n2ccc(N)nc2=O)C(F)(F)[C@@H]1O (stereo partly specified) | 35.2 nM
COC(=O)[C@H](C)NP(=O)(OC[C@H]1O[C@@H](n2ccc(N)nc2=O)C(F)(F)[C@@H]1O)Oc1ccccc1 (stereo partly specified) | > 1000 nM
COC(=O)COP(=O)(N[C@@H](C)C(=O)OC(C)C)OC[C@H]1O[C@@H](n2ccc(N)nc2=O)C(F)(F)[C@@H]1O (stereo partly specified) | 40.5 nM
Nc1ccn([C@@H]2O[C@@H]3COP(=O)(OCCCC(=O)OCc4ccccc4)O[C@H]3C2(F)F)c(=O)n1 (stereo partly specified) | 78.3 nM
CCOC(=O)COP1(=O)OC[C@H]2O[C@@H](n3ccc(N)nc3=O)C(F)(F)[C@@H]2O1 (stereo partly specified) | 22.6 nM
CCC(=O)Nc1ccn([C@@H]2O[C@@H]3COP(=O)(OCC(=O)OCc4ccccc4)O[C@H]3C2(F)F)c(=O)n1 (stereo partly specified) | 908 nM
CCCC(CCC)C(=O)Nc1ccn([C@@H]2O[C@H](COP(=O)(N[C@@H](C)C(=O)OCc3ccccc3)Oc3ccccc3)[C@@H](O)C2(F)F)c(=O)n1 (stereo partly specified) | > 1000 nM
CC(C)OC(=O)[C@H](C)NP(=O)(OC[C@H]1O[C@@H](n2ccc(N)nc2=O)C(F)(F)[C@@H]1O)Oc1ccccc1 (stereo partly specified) | > 1000 nM
Nc1ccn([C@@H]2O[C@@H]3CO[P@@](=O)(OCC(=O)OCc4ccccc4)O[C@H]3C2(F)F)c(=O)n1 | 15 nM
Nc1ccn([C@@H]2O[C@@H]3CO[P@](=O)(OCC(=O)OCc4ccccc4)O[C@H]3C2(F)F)c(=O)n1 | 14.5 nM
C[C@H](NP(=O)(OC[C@H]1O[C@@H](n2ccc(N)nc2=O)C(F)(F)[C@@H]1O)Oc1ccccc1)C(=O)OC1CCCCC1 (stereo partly specified) | > 1000 nM
CCCC(CCC)C(=O)Nc1ccn([C@@H]2O[C@H](COP(=O)(N[C@@H](C)C(=O)OC(C)C)OCC(=O)OC)[C@@H](O)C2(F)F)c(=O)n1 (stereo partly specified) | > 1000 nM
CC(C)OC(=O)COP1(=O)OC[C@H]2O[C@@H](n3ccc(N)nc3=O)C(F)(F)[C@@H]2O1 (stereo partly specified) | 47.5 nM
Nc1ccn([C@@H]2O[C@@H]3COP(=O)(OCCCCC(=O)OCc4ccccc4)O[C@H]3C2(F)F)c(=O)n1 (stereo partly specified) | 213 nM

Tested on: MIA PaCa-2
Assay: Antiproliferative activity against human MIA PaCa-2 cells assessed as inhibition of cell proliferation treated for 72 hrs by resazurin dye-based fluorescence assay
Type: functional
Details: MIA PaCa-2, 72 h

SMILES | IC50
COC(=O)COP1(=O)OC[C@H]2O[C@@H](n3ccc(N)nc3=O)C(F)(F)[C@@H]2O1 (stereo partly specified) | 13.6 nM
Nc1ccn([C@@H]2O[C@@H]3COP(=O)(OCCC(=O)OCc4ccccc4)O[C@H]3C2(F)F)c(=O)n1 (stereo partly specified) | 29 nM
COC(=O)COP(=O)(N[C@@H](C)C(=O)OCc1ccccc1)OC[C@H]1O[C@@H](n2ccc(N)nc2=O)C(F)(F)[C@@H]1O (stereo partly specified) | 27 nM
COC(=O)[C@H](C)NP(=O)(OC[C@H]1O[C@@H](n2ccc(N)nc2=O)C(F)(F)[C@@H]1O)Oc1ccccc1 (stereo partly specified) | 553 nM
COC(=O)COP(=O)(N[C@@H](C)C(=O)OC(C)C)OC[C@H]1O[C@@H](n2ccc(N)nc2=O)C(F)(F)[C@@H]1O (stereo partly specified) | 29.4 nM
Nc1ccn([C@@H]2O[C@@H]3COP(=O)(OCCCC(=O)OCc4ccccc4)O[C@H]3C2(F)F)c(=O)n1 (stereo partly specified) | 35.7 nM
CCOC(=O)COP1(=O)OC[C@H]2O[C@@H](n3ccc(N)nc3=O)C(F)(F)[C@@H]2O1 (stereo partly specified) | 16.3 nM
CCC(=O)Nc1ccn([C@@H]2O[C@@H]3COP(=O)(OCC(=O)OCc4ccccc4)O[C@H]3C2(F)F)c(=O)n1 (stereo partly specified) | 530 nM
CCCC(CCC)C(=O)Nc1ccn([C@@H]2O[C@H](COP(=O)(N[C@@H](C)C(=O)OCc3ccccc3)Oc3ccccc3)[C@@H](O)C2(F)F)c(=O)n1 (stereo partly specified) | > 1000 nM
CC(C)OC(=O)[C@H](C)NP(=O)(OC[C@H]1O[C@@H](n2ccc(N)nc2=O)C(F)(F)[C@@H]1O)Oc1ccccc1 (stereo partly specified) | 710 nM
C[C@H](NP(=O)(OC[C@H]1O[C@@H](n2ccc(N)nc2=O)C(F)(F)[C@@H]1O)Oc1ccccc1)C(=O)OC1CCCCC1 (stereo partly specified) | 540 nM
CCCC(CCC)C(=O)Nc1ccn([C@@H]2O[C@H](COP(=O)(N[C@@H](C)C(=O)OC(C)C)OCC(=O)OC)[C@@H](O)C2(F)F)c(=O)n1 (stereo partly specified) | > 1000 nM
CC(C)OC(=O)COP1(=O)OC[C@H]2O[C@@H](n3ccc(N)nc3=O)C(F)(F)[C@@H]2O1 (stereo partly specified) | 24.2 nM
Nc1ccn([C@@H]2O[C@@H]3COP(=O)(OCCCCC(=O)OCc4ccccc4)O[C@H]3C2(F)F)c(=O)n1 (stereo partly specified) | 50.9 nM

Tested on: CWR22R
Assay: Antiproliferative activity against human 22Rv1 cells assessed as inhibition of cell proliferation treated for 72 hrs by resazurin dye-based fluorescence assay
Type: functional
Details: 22Rv1, 72 h

SMILES | IC50
COC(=O)COP1(=O)OC[C@H]2O[C@@H](n3ccc(N)nc3=O)C(F)(F)[C@@H]2O1 (stereo partly specified) | 21.5 nM
CCOC(=O)COP1(=O)OC[C@H]2O[C@@H](n3ccc(N)nc3=O)C(F)(F)[C@@H]2O1 (stereo partly specified) | 20.5 nM
Nc1ccn([C@@H]2O[C@@H]3CO[P@@](=O)(OCC(=O)OCc4ccccc4)O[C@H]3C2(F)F)c(=O)n1 | 8.1 nM
Nc1ccn([C@@H]2O[C@@H]3CO[P@](=O)(OCC(=O)OCc4ccccc4)O[C@H]3C2(F)F)c(=O)n1 | 10.6 nM
CC(C)OC(=O)COP1(=O)OC[C@H]2O[C@@H](n3ccc(N)nc3=O)C(F)(F)[C@@H]2O1 (stereo partly specified) | 15 nM

Tested on: MV4-11
Assay: Antiproliferative activity against human MV4-11 cells assessed as inhibition of cell proliferation treated for 72 hrs by resazurin dye-based fluorescence assay
Type: functional
Details: MV4-11, 72 h

SMILES | IC50
COC(=O)COP1(=O)OC[C@H]2O[C@@H](n3ccc(N)nc3=O)C(F)(F)[C@@H]2O1 (stereo partly specified) | 5.8 nM
COC(=O)COP(=O)(N[C@@H](C)C(=O)OCc1ccccc1)OC[C@H]1O[C@@H](n2ccc(N)nc2=O)C(F)(F)[C@@H]1O (stereo partly specified) | 5.8 nM
COC(=O)COP(=O)(N[C@@H](C)C(=O)OC(C)C)OC[C@H]1O[C@@H](n2ccc(N)nc2=O)C(F)(F)[C@@H]1O (stereo partly specified) | 3.5 nM
CCOC(=O)COP1(=O)OC[C@H]2O[C@@H](n3ccc(N)nc3=O)C(F)(F)[C@@H]2O1 (stereo partly specified) | 6.1 nM
Nc1ccn([C@@H]2O[C@@H]3CO[P@@](=O)(OCC(=O)OCc4ccccc4)O[C@H]3C2(F)F)c(=O)n1 | 4.1 nM
Nc1ccn([C@@H]2O[C@@H]3CO[P@](=O)(OCC(=O)OCc4ccccc4)O[C@H]3C2(F)F)c(=O)n1 | 3.8 nM
CC(C)OC(=O)COP1(=O)OC[C@H]2O[C@@H](n3ccc(N)nc3=O)C(F)(F)[C@@H]2O1 (stereo partly specified) | 4.9 nM

Tested on: JeKo-1
Assay: Antiproliferative activity against human JeKo-1 cells assessed as inhibition of cell proliferation treated for 72 hrs by resazurin dye-based fluorescence assay
Type: functional
Details: JeKo-1, 72 h

SMILES | IC50
COC(=O)COP1(=O)OC[C@H]2O[C@@H](n3ccc(N)nc3=O)C(F)(F)[C@@H]2O1 (stereo partly specified) | 23.2 nM
COC(=O)COP(=O)(N[C@@H](C)C(=O)OCc1ccccc1)OC[C@H]1O[C@@H](n2ccc(N)nc2=O)C(F)(F)[C@@H]1O (stereo partly specified) | 22.6 nM
COC(=O)COP(=O)(N[C@@H](C)C(=O)OC(C)C)OC[C@H]1O[C@@H](n2ccc(N)nc2=O)C(F)(F)[C@@H]1O (stereo partly specified) | 26.2 nM
CCOC(=O)COP1(=O)OC[C@H]2O[C@@H](n3ccc(N)nc3=O)C(F)(F)[C@@H]2O1 (stereo partly specified) | 31.6 nM
CC(C)OC(=O)COP1(=O)OC[C@H]2O[C@@H](n3ccc(N)nc3=O)C(F)(F)[C@@H]2O1 (stereo partly specified) | 23.4 nM

Tested on: Huh-7
Assay: Antiproliferative activity against human Huh-7 cells assessed as inhibition of cell proliferation treated for 72 hrs by resazurin dye-based fluorescence assay
Type: functional
Details: Huh-7, 72 h

SMILES | IC50
COC(=O)COP1(=O)OC[C@H]2O[C@@H](n3ccc(N)nc3=O)C(F)(F)[C@@H]2O1 (stereo partly specified) | 23 nM
COC(=O)COP(=O)(N[C@@H](C)C(=O)OCc1ccccc1)OC[C@H]1O[C@@H](n2ccc(N)nc2=O)C(F)(F)[C@@H]1O (stereo partly specified) | 28.2 nM
COC(=O)COP(=O)(N[C@@H](C)C(=O)OC(C)C)OC[C@H]1O[C@@H](n2ccc(N)nc2=O)C(F)(F)[C@@H]1O (stereo partly specified) | 41.1 nM
CCOC(=O)COP1(=O)OC[C@H]2O[C@@H](n3ccc(N)nc3=O)C(F)(F)[C@@H]2O1 (stereo partly specified) | 38.4 nM
Nc1ccn([C@@H]2O[C@@H]3CO[P@@](=O)(OCC(=O)OCc4ccccc4)O[C@H]3C2(F)F)c(=O)n1 | 22 nM
Nc1ccn([C@@H]2O[C@@H]3CO[P@](=O)(OCC(=O)OCc4ccccc4)O[C@H]3C2(F)F)c(=O)n1 | 22 nM
CC(C)OC(=O)COP1(=O)OC[C@H]2O[C@@H](n3ccc(N)nc3=O)C(F)(F)[C@@H]2O1 (stereo partly specified) | 26.1 nM
